Test results published in article PMC11280065, “^64Cu^2+ Complexes of Tripodal Amine Ligands’ In Vivo Tumor and Liver Uptakes and Intracellular Cu Distribution in the Extrahepatic Bile Duct Carcinoma Cell Line TFK-1: A Basic Comparative Study” (Pharmaceuticals, 2024).
Values belong to the molecule of their own block, whether it stands above or below them.

Tests used:
[1] = test system: mice bearing TFK-1-RFP cells; settings: mean ± SD
[2] = test system: TFK-1 cells; experiment: Micro-PIXE analysis of intracellular Cu distribution; type: cell-based, human; settings: compared among the three Cu2+ complexes and Cu2+ ions, no significant differences
Description: A positive correlation was observed between in vitro whole-cell uptake and in vivo tumor uptake (R = 0.992, p = 0.00772) (Figure S2). Similarly, we observed a consistent correlation between in vitro nuclear uptake and in vivo tumor uptake (417.6 counts ± 150.02 for Cu^2+-Tren, 203.00 counts ± 25.13 for Cu^2+-Dien, 94.82 counts ± 48.07 for Cu^2+-TPMA, and 35.57 counts ± 25.02 for Cu^2+ ions) (p < 0.05).
The human extrahepatic bile duct carcinoma cell line TFK-1 was obtained from the RIKEN Bioresource Research Center (Ibaraki, Japan) and immediately expanded and frozen in our laboratory. […] Exponentially growing cells were detached from plates using trypsin (0.5 w/v% Trypsin-5.3 mmol/L EDTA·4Na Solution without Phenol Red (×10), Fujifilm Wako Pure Chemical Corporation, Osaka, Japan), and the number of viable cells was determined using the trypan blue dye (Bio-Rad, Hercules CA, USA) exclusion method.
A micro-PIXE analysis was carried out at the QST Electrostatic Accelerator Facility. […] Cells were subsequently stained with DAPI (4′,6-diamidino-2-phenylindole; Bio-Rad, Hercules, CA, USA) for nuclear localization and observed under a fluorescence microscope (BZ-X810, Keyence, Osaka, Japan). […] Distributions of Cu, P, K, Ca, Al, Fe, and S in each group were determined using Kα lines. […] Nuclei localization was determined via fluorescence microscope images of DAPI staining. […]

tumor uptake ([1]; TFK-1-RFP-xenografted SCID beige mice, 2.5 h after intravenous injection of 1.85 MBq, n = 3–4/group): 7.56 ± 0.41 %ID/g
Structure (SMILES): [Cl-].[Cl-].[Cu+2].c1ccc(CN(Cc2ccccn2)Cc2ccccn2)nc1 [Cu^2+-TPMA]

urinary excretion ([1]; urine collected during the 2.5 h post-administration, intravenous, TFK-1-RFP-xenografted mice): 1.68 ± 0.46 %ID
Structure (SMILES): NCCNCCN.[Cl-].[Cl-].[Cu+2] [Cu^2+-Dien]

Structure (SMILES): NCCN(CCN)CCN.[Cl-].[Cl-].[Cu+2] [Cu^2+-Tren]
percentage counts of nuclear uptake/whole-cell uptake [2]: highest average value
